Assay results taken from paper PMC8878468, “Image-Based Annotation of Chemogenomic Libraries for Phenotypic Screening” (Molecules, 2022).
pIC50: −log10 of the molar value. Like-named read-outs stand apart in the source and are kept apart here.

Experiments:
HCT116-FUCCI cells [1] = test system: HCT116-FUCCI cells; set-up: method as in per compound as in column reference of Table S3; settings: literature annotation in Table S3; ref per compound as in Table S3; cited from earlier work
U2OS cells [2] = assay: Multiplex high-content protocol (nuclei gating, tubulin, mitochondrial mass, membrane permeability); format: cell-based, human; settings: for healthy nuclei (healthy cells) / membrane permeabilization effects / viability at 1 µM: 24 h; for mitochondrial mass increase detected / marked for tubulin effects while crossing no other phenotypic threshold: threshold > 50%; for viability at 1 µM: Homo sapiens, read-out: healthy nuclei
Experimental: Using the CQ1 high-content confocal microscope (Yokogawa), cellular shape and fluorescence was measured before and 12 h as well as 24 h after compound treatment. All compounds were diluted in DMSO to a concentration of 10 mM.
The rather large spacing distance was used to create a robust readout, compensating potential plate variations and enabling automated screening without the use of autofocus. The overlap of the fluorescence emission spectra of the dyes was neglectable for all but the MitoTracker Red and Annexin V Alexa Fluor 680 (Supplementary Figure S9).
All images were analyzed using the CellPathfinder software (Yokogawa). Segmentation of cells was performed as described earlier. First, the cells are classified in Hoechst High Intensity Objects or Normal Intensity Objects (Supplementary Table S7). All normal gated cells are further classified in healthy, fragmented or pyknosed nuclei (Supplementary Table S7). The pyknosed cells are gated in mitotic or apoptotic cells using seven features for the cell body and five features for the cell nuclei according to their Annexin V staining intensity (Supplementary Table S7). All cells that were classified as including a healthy nucleus are further gated into three phenotypic classes. […] Growth rate was calculated against non-treated cells and cells treated with DMSO 0.1% [61].

HCT116-FUCCI cells [3] = assay: FUCCI cell cycle assay with nuclear gating; format: cell-based, human; settings: 10 µM; for change of FUCCI nuclei population in comparison to DMSO: up to 70 h; for main nuclei color: Table S3
Experimental: For generation of a stable cell line, including the florescent ubiquitination-base cell cycle indicator FUCCI, the plasmid-based transposon system Sleeping Beauty was used. Vector (pSBbi_Fucci) and the Transposase SB100X have been described previously. […] Two days after transfection, cells were selected over 10 days using puromycin (1 µg/mL) and cultivated afterwards for two more weeks in McCoys 5A plus L-Glutamine (Gibco) supplemented by 10% FBS (Gibco) and Penicillin/Streptomycin (Gibco).
Fluorescence and cellular shape were measured before and after compound treatment for 72 h every 12 h using the CQ1 high-content confocal microscope (Yokogawa). […]
Image analysis was performed using the CellPathfinder software (Yokogawa). Segmentation of cells was performed as described earlier. First, the cells are classified in Hoechst High Intensity Objects or Normal Intensity Objects (Supplementary Table S7). All normal gated cells are further classified in healthy, fragmented or pyknosed nuclei (Supplementary Table S7). […] Total cell count was normalized against total cell count of cells treated with 0.1% DMSO.

U2OS cells [4] = assay: cells; settings: Homo sapiens

Compound: COc1cccc2c1C(=O)c1c(O)c3c(c(O)c1C2=O)C[C@@](O)(C(C)=O)C[C@@H]3O[C@H]1C[C@H](N)[C@H](O)[C@H](C)O1 [daunorubicin]
- known cell cycle effect (HCT116-FUCCI cells [1]): breaks, cell cycle arrest
- healthy nuclei (healthy cells) (U2OS cells [2]; U2OS, 10 µM): less than 50%
- change of FUCCI nuclei population in comparison to DMSO (HCT116-FUCCI cells [3]): More yellow nuclei

Compound: CN1CCN(C(=O)C(C)(C)c2ccc(C(=O)Nc3cn4cc(-c5ccncc5)ccc4n3)cc2)CC1 [T3-CLK]
- known cell cycle effect (HCT116-FUCCI cells [1]): G2/M cell cycle arrest
- main nuclei color (HCT116-FUCCI cells [3]): green

Compound: CC(=O)Nc1cccc(-n2c(=O)n(C3CC3)c(=O)c3c(Nc4ccc(I)cc4F)n(C)c(=O)c(C)c32)c1 [trametinib]
- change of FUCCI nuclei population in comparison to DMSO (HCT116-FUCCI cells [3]): increase in red nuclei

Compound: CC(=O)O[C@H]1C(=O)[C@@]2(C)[C@H]([C@H](OC(=O)c3ccccc3)[C@]3(O)C[C@H](OC(=O)[C@H](O)[C@@H](NC(=O)c4ccccc4)c4ccccc4)C(C)=C1C3(C)C)[C@]1(OC(C)=O)CO[C@@H]1C[C@@H]2O [paclitaxel]
- known cell cycle effect (HCT116-FUCCI cells [1]): concentration-dependent
- pIC50 (U2OS cells [4]; 14 h, read-out: IC 50 14 h): < 5.70
- pIC50 (U2OS cells [4]; 26 h, read-out: IC 50 26 h): 7.00
- pIC50 (U2OS cells [4]; 42 h, read-out: IC 50 42 h): 7.22
- pIC50 (U2OS cells [4]; 56 h, read-out: IC 50 56 h): 7.30
- change of FUCCI nuclei population in comparison to DMSO (HCT116-FUCCI cells [3]): increase in red nuclei

Compound: CNCc1ccc(-c2cc(-c3nc(-c4ccc(S(=O)(=O)C(C)C)cc4)cnc3N)on2)cc1 [berzosertib]
- Hoechst High Intensity Objects (Hoechst intensity compared to normal nuclei) (U2OS cells [2]; U2OS, 1 µM): more than 50%
- pIC50 (U2OS cells [4]; 14 h, read-out: IC 50 14 h): 7.20
- pIC50 (U2OS cells [4]; 26 h, read-out: IC 50 26 h): 7.19
- pIC50 (U2OS cells [4]; 42 h, read-out: IC 50 42 h): 7.23
- pIC50 (U2OS cells [4]; 56 h, read-out: IC 50 56 h): 7.25

Compound: Cc1[nH]c2ccccc2c1CCNCc1ccc(/C=C/C(=O)NO)cc1 [Panobinostat]
- known cell cycle effect (HCT116-FUCCI cells [1]): G 1/S cell cy cle arrest

Compound: CC[C@@]1(O)C(=O)OCc2c1cc1n(c2=O)Cc2cc3c(CN(C)C)c(O)ccc3nc2-1 [topotecan]
- mitochondrial mass increase detected (U2OS cells [2]; U2OS, 1 µM): mitochondrial mass increase
- healthy nuclei (healthy cells) (U2OS cells [2]; U2OS, 10 µM): less than 50%
- Hoechst High Intensity Objects (U2OS cells [2]; U2OS, 10 µM, after 24 h, in one of two biological replicates): > 30%
- change of FUCCI nuclei population in comparison to DMSO (HCT116-FUCCI cells [3]): increase in green nuclei

Compound: C[C@@H]1CC[C@@]2(OC1)O[C@H]1[C@@H](O)[C@H]3[C@@H]4CC[C@H]5C[C@@H](O[C@@H]6O[C@H](CO)[C@H](O[C@@H]7O[C@H](CO)[C@@H](O)[C@H](O[C@@H]8OC[C@@H](O)[C@H](O)[C@H]8O)[C@H]7O[C@@H]7O[C@H](CO)[C@H](O)[C@H](O[C@@H]8O[C@H](CO)[C@@H](O)[C@H](O)[C@H]8O)[C@H]7O)[C@H](O)[C@H]6O)[C@H](O)C[C@]5(C)[C@H]4CC[C@]3(C)[C@H]1[C@@H]2C [digitonin]
- healthy nuclei (healthy cells) (U2OS cells [2]; U2OS, 10 µM): more than 50%
- pIC50 (U2OS cells [4]; 14 h, read-out: IC 50 14 h): 4.97
- pIC50 (U2OS cells [4]; 26 h, read-out: IC 50 26 h): 4.94
- pIC50 (U2OS cells [4]; 42 h, read-out: IC 50 42 h): 4.94
- pIC50 (U2OS cells [4]; 56 h, read-out: IC 50 56 h): 4.82

Compound: CN[C@@H]1C[C@H]2O[C@@](C)([C@@H]1OC)n1c3ccccc3c3c4c(c5c6ccccc6n2c5c31)C(=O)NC4 [staurosporine]
- known cell cycle effect (HCT116-FUCCI cells [1]): dose-dependent cell
- mitochondrial mass, first analysis gating all cells independently of viability (U2OS cells [2]; 10 µM): increased mitochondrial mass
- tubulin effect, first analysis gating all cells independently of viability (U2OS cells [2]; 10 µM): tubulin effects
- healthy nuclei (healthy cells) (U2OS cells [2]; U2OS, 10 µM): less than 50%

Compound: CCOC(=O)Nc1cc(-c2ccc(C)c(NS(C)(=O)=O)c2)nn2c(C)nnc12 [Bromosporine]
- known cell cycle effect (HCT116-FUCCI cells [1]): increase of cells in G1
- marked for tubulin effects while crossing no other phenotypic threshold (U2OS cells [2]; U2OS, 1 µM): marked to have tubulin effects

Compound: O=c1cc(-c2ccccc2)oc2c1ccc1ccccc12 [α-naphthoflavone]
- known cell cycle effect (HCT116-FUCCI cells [1]): G1 cell cy cle arrest
- change of FUCCI nuclei population in comparison to DMSO (HCT116-FUCCI cells [3]): increase in red nuclei

Compound: C=CC(=O)Nc1cccc(Oc2nc(Nc3ccc(N4CCN(C)CC4)cc3OC)ncc2Cl)c1 [WZ-4002]
- effect on tubulin (U2OS cells [2]; 1 µM, 12 h): effect on tubulin
- membrane permeabilization effects (U2OS cells [2]; U2OS, 1 µM): membrane permeabilization

Compound: CC[C@@H]1C(=O)N(C)c2cnc(Nc3ccc(C(=O)N[C@H]4CC[C@H](N5CCN(CC6CC6)CC5)CC4)cc3OC)nc2N1C(C)C [volasertib]
- viability at 1 µM (U2OS cells [2]; U2OS, 1 µM): ≤ 40%

Compound: Cc1c(P(=S)(c2ccccc2)c2ccccc2)n2ccccc2[n+]1C/C=C/c1ccccc1 [ML154]
- viability at 1 µM (U2OS cells [2]; U2OS, 1 µM): ≤ 40%

Compound: Nc1ccc(C(=O)Nc2cccc(-c3nc(N4CCOCC4)c4oc5ncccc5c4n3)c2)cn1 [YM-201636]
- marked for tubulin effects while crossing no other phenotypic threshold (U2OS cells [2]; U2OS, 1 µM): marked to have tubulin effects

Compound: CCOc1cc(C(=O)N2CCC(N3CCN(C)CC3)CC2)ccc1Nc1ncc2c(n1)N(C1CCCC1)c1ccccc1C(=O)N2C [XMD17-109]
- mitochondrial mass increase detected (U2OS cells [2]; U2OS, 1 µM): mitochondrial mass increase

Compound: COc1ccc(C[C@H](N)C(=O)N[C@H]2[C@@H](O)[C@H](n3cnc4c(N(C)C)ncnc43)O[C@@H]2CO)cc1 [puromycin]
- known cell cycle effect (HCT116-FUCCI cells [1]): effect on cell cycle
- mitochondrial mass, first analysis gating all cells independently of viability (U2OS cells [2]; 10 µM): increased mitochondrial mass
- tubulin effect, first analysis gating all cells independently of viability (U2OS cells [2]; 10 µM): tubulin effects
- healthy nuclei (healthy cells) (U2OS cells [2]; U2OS, 10 µM): less than 50%

Compound: COc1cc(Nc2ccnc3ccc(Br)cc23)cc(OC)c1OC [SGC-GAK-1]
- mitochondrial mass increase detected (U2OS cells [2]; U2OS, 1 µM): mitochondrial mass increase

Compound: CCOC(=O)c1c(C)[nH]c2ccc3c(c12)CN1CCc2cc(OC)ccc2C1O3 (stereo not shown) [PD 102807]
- mitochondrial mass increase detected (U2OS cells [2]; U2OS, 1 µM): mitochondrial mass increase

Compound: N#Cc1c2nc3ccccc3nc2n2ccc(NC(=O)c3cccs3)cc12 [HI-TOPK-032]
- known cell cycle effect (HCT116-FUCCI cells [1]): during mitosis, G1 cell
- main nuclei color (HCT116-FUCCI cells [3]): yellow
- change of FUCCI nuclei population in comparison to DMSO (HCT116-FUCCI cells [3]): increased number of cells with yellow nuclei

Compound: Nc1ncnc2c1c(-c1cccc(OCc3ccccc3)c1)cn2[C@H]1C[C@@H](CN2CCC2)C1 [NVP-AEW541]
- mitochondrial mass increase detected (U2OS cells [2]; U2OS, 1 µM): mitochondrial mass increase

Compound: COc1cc2ncnc(Nc3ccc(F)c(Cl)c3)c2cc1NC(=O)/C=C/CN1CCCCC1 [PF-299804]
- membrane permeabilization effects (U2OS cells [2]; U2OS, 1 µM): more than 65%
- marked for tubulin effects while crossing no other phenotypic threshold (U2OS cells [2]; U2OS, 1 µM): marked to have tubulin effects

Compound: O=C1c2c(O)ccc(O)c2C(=O)c2c(NCCNCCO)ccc(NCCNCCO)c21 [mitoxantrone]
- known cell cycle effect (HCT116-FUCCI cells [1]): delay in cell cycle
- change of FUCCI nuclei population in comparison to DMSO (HCT116-FUCCI cells [3]): increase in green nuclei

Compound: O=C(CCCCCCNC(=O)c1cnc(N(c2ccccc2)c2ccccc2)nc1)NO [ricolinostat]
- pIC50 (U2OS cells [4]; 26 h, read-out: IC 50 26 h): 4.87
- pIC50 (U2OS cells [4]; 42 h, read-out: IC 50 42 h): 4.87
- pIC50 (U2OS cells [4]; 56 h, read-out: IC 50 56 h): 4.86

Compound: C[C@@]1(C(=O)Nc2ccc(F)nc2)CCCN1c1nc(Nc2cc(C3CC3)n[nH]2)c2cccn2n1 [BMS-754807]
- viability at 1 µM (U2OS cells [2]; U2OS, 1 µM): ≤ 40%

Compound: COc1cccc2c1C(=O)c1c(O)c3c(c(O)c1C2=O)C[C@@](O)(C(=O)CO)C[C@@H]3O[C@H]1C[C@H](N)[C@H](O)[C@H](C)O1 [doxorubicin]
- known cell cycle effect (HCT116-FUCCI cells [1]): G0/G1 cell cycle arrest
- change of FUCCI nuclei population in comparison to DMSO (HCT116-FUCCI cells [3]): More yellow nuclei
